Experimental data as given in publication PMC6315506 (Viruses, 2018).

Tests used:
Settings in all cases: 10 µM
[1] = test system: HIV-1/LASV pseudovirus; test: microbe, parasite or virus in culture; type: cell-based
[2] = test system: HIV-1/EBOV pseudovirus
[3] = test system: HIV-1/H5N1 pseudovirus; test: organism not typed; type: cell-based, influenza A virus A/Goose/Qinghai/59/05 (H5N1)
[4] = test system: A549 cells

SMILES	Inhibition HIV/LASV [1]	Inhibition HIV/EBOV [2]	Inhibition HIV/H5N1 [3]	Cell Viability [4]
CN(C)Cc1cccc(-c2cc3cc(Br)ccc3nc2Sc2cccc(O)c2)c1 [SYL1639]	98.93%	99.85%	97.65%	2.71%
CN(C)CCc1cccc(-c2cc3cc(Br)ccc3nc2OCc2cccc3ccccc23)c1 [SYL1643]	83.87%	99.82%	72.74%	85.39%
CN1CCC(c2ccccc2)(C(O)(c2ccccc2)c2ccc3ccccc3c2)CC1 (centres unmarked) [SYL1644]	92.36%	99.92%	97.63%	78.35%
COc1nc2ccc(Br)cc2cc1C(c1ccccc1)C1(OC(=O)c2ccccc2)CCN(C)CC1 (centres unmarked) [SYL1645]	86.68%	99.92%	45.37%	82.47%
CN(C)C(=O)c1cccc(-c2cc3ccccc3nc2Oc2cccc3ccccc23)c1 [SYL1646]	82.50%	99.92%	-23.29%	83.55%
Fc1cccc(COc2nc3ccc(Br)cc3cc2-c2cccc(Oc3ccccn3)c2)c1 [SYL1647]	89.08%	99.94%	44.09%	82.66%
CN(C)Cc1cccc(-c2cc3cc(Br)ccc3nc2Oc2ccncc2)c1 [SYL1648]	89.27%	99.91%	37.82%	84.21%
COc1nc2ccc(Br)cc2cc1C(O)(Cc1cccc(F)c1)c1ccccc1CN(C)C (centres unmarked) [SYL1649]	90.46%	99.90%	79.45%	81.62%
Fc1cccc(COc2nc3ccc(Br)cc3cc2-c2cccc(-c3ncco3)c2)c1 [SYL1650]	87.63%	99.92%	-15.72%	81.60%
COc1nc2ccccc2cc1C(O)(Cc1cccc(F)c1)c1ccccc1 (centres unmarked) [SYL1651]	89.23%	99.95%	30.01%	79.56%
CN(C)Cc1ccccc1C(O)c1cc2cc(Br)ccc2nc1OCc1cccc2ccccc12 (centres unmarked) [SYL1652]	97.16%	99.94%	98.16%	61.30%
Brc1ccc2nc(Oc3cccc4ccccc34)c(-c3ccccc3)cc2c1 [SYL1653]	87.04%	99.85%	64.36%	82.57%
CN(C)Cc1cccc(-c2cc3cc(Br)ccc3nc2Nc2cccc3ccccc23)c1 [SYL1656]	51.43%	79.70%	49.96%	77.79%
COc1nc2ccccc2cc1C(O)(Cc1cccc(F)c1)c1cccc(CN(C)C)c1 (centres unmarked) [SYL1659]	97.39%	99.09%	96.52%	36.09%
CN1CCC(c2ccccc2)(C(O)(c2ccccc2)c2ccccc2)CC1 [SYL1661]	72.11%	99.91%	5.09%	77.89%
COc1nc2ccccc2cc1C(Nc1ccccc1N1CCN(C)C1=O)c1ccccc1 (centres unmarked) [SYL1662]	89.05%	99.56%	68.52%	89.06%
COc1ccc(CC(O)(c2ccccc2CN(C)C)c2cc3cc(OC)ccc3nc2OC)cc1 (centres unmarked) [SYL1663]	89.19%	99.90%	88.29%	89.15%
CN(C)Cc1cccc(-c2cc3cc(Br)ccc3nc2OCCc2cccc3ccccc23)c1 [SYL1664]	86.44%	99.90%	50.44%	84.59%

SMILES	Inhibition HIV/LASV [1]	Inhibition HIV/EBOV [2]	Inhibition HIV/H5N1 [3]	Cell Viability [4]
CN(C)Cc1ccc(-c2cc3cc(Br)ccc3nc2OCc2cccc3ccccc23)cc1 [SYL1665]	88.72%	99.92%	84.24%	82.87%
CN(C)Cc1cccc(-c2cc3cc(Br)ccc3nc2OCc2cccc(F)c2)c1 [SYL1666]	91.03%	99.92%	87.06%	81.28%
COc1ccc2nc(OCc3cccc4ccccc34)c(-c3cccc(CN(C)C)c3)cc2c1 [SYL1667]	85.91%	99.94%	85.49%	83.17%
COc1nc2ccccc2cc1C(O)(Cc1cccc(F)c1)c1ccccc1CN1CCOCC1 (centres unmarked) [SYL1668]	86.46%	99.87%	74.86%	79.06%
CN1CCN(c2ccc(-c3cc4cc(Br)ccc4nc3OCc3cccc4ccccc34)cc2)CC1 [SYL1669]	92.49%	99.94%	96.42%	82.47%
CN1CCN(Cc2ccc(-c3cc4cc(Br)ccc4nc3OCc3cccc4ccccc34)cc2)CC1 [SYL1670]	77.77%	99.92%	91.10%	82.37%
CCN(CC)CCc1ccc(-c2cc3cc(Br)ccc3nc2OCc2cccc3ccccc23)cc1 [SYL1671]	89.90%	99.87%	92.36%	88.97%
CNCCc1ccc(-c2cc3cc(Br)ccc3nc2OCc2cccc3ccccc23)cc1 [SYL1672]	99.22%	99.85%	98.01%	2.06%
CN(C)Cc1ccc(-c2cc3cc(Br)ccc3nc2OCc2ccccc2)cc1 [SYL1675]	91.37%	99.89%	98.13%	88.37%
CN(C)Cc1ccc(-c2cc3cc(Br)ccc3nc2Oc2ccccc2)cc1 [SYL1676]	19.98%	71.19%	36.23%	89.65%
CN(C)C(=O)Cc1ccc(-c2cc3cc(Br)ccc3nc2OCc2cccc3ccccc23)cc1 [SYL1677]	29.51%	90.04%	15.95%	58.71%
CN(C)Cc1ccc(-c2cc3cc(Br)ccc3nc2OCc2cccc3ccccc23)cc1F [SYL1678]	97.25%	99.38%	93.90%	122.25%
CNCCNCc1ccc(-c2cc3cc(Br)ccc3nc2OCc2cccc3ccccc23)cc1 [SYL1679]	97.63%	99.70%	96.95%	117.07%
CN(C)Cc1ccc(-c2cc3cc(Br)ccc3nc2OCc2cccc3ccccc23)c(F)c1 [SYL1682]	94.69%	99.91%	78.74%	84.09%
C[N+](C)(C)Cc1ccc(-c2cc3cc(Br)ccc3nc2OCc2cccc3ccccc23)cc1.[I-] [SYL1685]	93.29%	99.90%	65.25%	103.42%
Brc1ccc2nc(OCc3cccc4ccccc34)c(-c3ccc(N4CCCC4)cc3)cc2c1 [SYL1686]	90.35%	99.92%	65.78%	82.03%
CN1CCN(c2ccc(-c3cc4cc(Br)ccc4nc3OCc3cccc4ccccc34)cn2)CC1 [SYL1687]	88.94%	99.94%	31.90%	78.11%
